According to US20200087516A1, “RED FLUORESCENT PROBE FOR USE IN DETECTION OF PEPTIDASE ACTIVITY” (The University of Tokyo, priority 2017, published 2020):

What was measured:
[1] = Fluorescence quantum yield; type: physicochemical; details: pH 3.0
[2] = test system: γ-Glutamyl transpeptidase (GGT); assay: Enzyme assay of fluorescent probes: fluorescence intensity change on GGT addition; type: biochemical; details: 1 μM probe, 10 mM NaPi buffer pH 7.4, 37° C., 1.1 U GGT; 585 nm (probe 1), 613 nm (probe 2)
Procedure: γ-Glutamyl transpeptidase (GGT) was added to fluorescent probes 1 and 2 of the present invention, and the changes in fluorescence intensity were measured.
Fluorescent probe 1 or 2 was dissolved to make 1 μM in 2.5 mL of 10 mM NaPi buffer (pH 7.4) containing 0.03% DMSO. The solution, kept at 37° C., was stirred using a magnetic stirrer, and the fluorescence intensity was measured. 1.1 U of GGT was added two minutes after the start of measurement in experiments other than the negative control. The fluorescence intensity of fluorescent probe 1 at 585 nm was measured for a total of 6000 seconds and the fluorescence intensity of probe 2 at 613 nm was measured for a total of 2400 seconds, and plotted as a function of time elapsed. The excitation wavelength was 550 nm for fluorescent probe 1 and 593 nm for fluorescent probe 2; the slit width was 2.4 nm, 5.0 nm for both excitation and fluorescence, and the photomultiplier tube voltage was 700 V.
As a result, the fluorescence intensity was confirmed to increase due to addition of GGT in the case of both fluorescent probes 1 and 2. The quantum yield of fluorescent probe 1 was 0.58 at pH 3.0. The quantum yield of fluorescent probe 2 was 0.26 at pH 3.0.

[3] = Absorption/fluorescence spectrum measurement of the fluorescent probes (pKcycl from absorption spectra); type: physicochemical; details: computed from absorption spectra (FIG. 2, FIG. 4)
Text: The absorption spectra and fluorescence spectra of fluorescent probe 1 (gGlu-MHM4ThPCR550) and fluorescent probe 2 (gGlu-HM3ThPSiR600) synthesized in Example 1 were each measured.
FIGS. 2 and 3 respectively show the absorption spectra and fluorescence spectra of fluorescent probe 1 (gGlu-MHM4ThPCR550) and, as a comparison, MHM4ThPCR550 having no gGlu group. The pKcycl values computed from the results in FIG. 2 are shown below in Table 3.
The absorption spectra of HM3ThPSiR600 and HM3ThPAcSiR600 having no gGlu group are also shown as a comparison.

[4] = test system: SHIN3 cells disseminated intraperitoneally; assay: In vivo imaging using cancer peritoneal dissemination model mice; details: 100 μM, 300 μL intraperitoneally, five minutes after administration
Procedure: A quantity of 300 μL of 100 μM fluorescent probes 1 and 2 was injected intraperitoneally into model mice that had been injected intraperitoneally with SHIN3. After five minutes, the mice were placed under isoflurane anesthesia and laparotomized, and imaging was conducted by a Maestro imager.
Fluorescence spectrum imaging was conducted using a mouse model in which SHIN3 cells had been disseminated intraperitoneally. SHIN3-disseminated model mice were established by intraperitoneally injecting 3×10^6 SHIN3 cells suspended in 300 μL of PBS(−) into seven-week-old female nude mice. The experiment was conducted 29-30 days after injection. The probe solution (100 μM, 300 μL) dissolved in PBS(−) was injected intraperitoneally and allowed to stand for five minutes. The mice were then anesthetized by inhalation of isoflurane, and the skin of the abdomen was cut open. The intestine was removed from the incision, placed on a black rubber plate, and the mesentery was spread. It was applied dropwise to the spread mesentery. Fluorescence imaging was conducted using a Maestro™ Ex In-Vivo Imaging System (CRi Inc.). […] An image with the wavelength of fluorescence derived from the probe cut out or an image spectrally unmixed with autofluorescence is shown. […]

[5] = pKcycl measured values of existing rhodamine derivatives (model structures); type: physicochemical; details: Table 1, model structures
Text: A formula that calculates pKcycl from the free energy difference of the closed-ring form/ring-opened form by the analyzed cationic reaction was derived, assuming that acid-base equilibrium (lateral direction in the model) is reached quickly enough in the HM groups and amino groups. When the calculation results of close-1, open-1 were used as this free energy difference, it was understood that pKcycl of existing derivatives is accurately reproduced.

SMILES | quantum yield [1] | change in fluorescence intensity due to addition of GGT [2] | pKcycl (Measured) [3] | fluorescence imaging of tumors on the mesentery [4] | pKcycl (Measured) [5]
CC1OC2(c3ccc(N)cc3C(C)(C)c3cc(NC(=O)CC[C@H](N)C(=O)O)ccc32)c2ccsc21 (stereo partly drawn) [fluorescent probe 1] | 0.58 | increase | 6.3 | small tumors having adequate contrast from the background could be observed | –
N=c1ccc2c(-c3ccccc3CO)c3ccc(N)cc3oc-2c1 [HMRG] | – | – | – | – | 8.1
C[Si]1(C)c2cc(N)ccc2C2(OCc3sccc32)c2ccc(NC(=O)CC[C@H](N)C(=O)O)cc21 (stereo partly drawn) [fluorescent probe 2] | 0.26 | increase | 5.4 | small tumors having adequate contrast from the background could be observed | –
